Experimental data published in patent US6093744A, “N-acyl sulfamic acid esters useful as hypocholesterolemic agents” (Warner-Lambert Company, priority 1998, dated 2000).
Structures can show the parent of a compound that is named as a salt.

What was measured:
Plasma TC = test: in vivo screen designated APCC (high fat, high cholesterol diet, plasma cholesterol); parameters: species or system male Sprague-Dawley rats; conditions: dose 10 mg/kg, rats, PCC diet with 0.5% cholic acid overnight, vehicle CMC/Tween; for change in vivo at 10 mg/kg: Rattus norvegicus
Excerpt: In one in vivo screen designated APCC, male Sprague-Dawley rats (200 to 225 g) were randomly divided into treatment groups and dosed at 4 PM with either vehicle (CMC/Tween) or suspensions of compounds in vehicle. The normal chow diet was then replaced with a high fat, high cholesterol diet (designated PCC) containing 0.5% cholic acid. The rats consumed this diet ad libitum during the night and were sacrificed at 8 AM to obtain blood samples for cholesterol analysis using standard procedures. Statistical differences between mean cholesterol values for the same vehicle were determined using analysis of variance followed by Fisher's least significant test.

[1] = target: T1, acyl-CoA: cholesterol acyltransferase (ACAT) (Rattus norvegicus, UniProt Q7TQM4); test: In vitro inhibition of acylation of cholesterol by oleic acid (LAI), rat liver microsomes; assay type: biochemical; conditions: radiolabeled oleic acid
T1 construct: tissue preparation containing rat liver microsomes; from tissue; host or cells: rat liver microsomes
T1 sequence (Q7TQM4 1-524): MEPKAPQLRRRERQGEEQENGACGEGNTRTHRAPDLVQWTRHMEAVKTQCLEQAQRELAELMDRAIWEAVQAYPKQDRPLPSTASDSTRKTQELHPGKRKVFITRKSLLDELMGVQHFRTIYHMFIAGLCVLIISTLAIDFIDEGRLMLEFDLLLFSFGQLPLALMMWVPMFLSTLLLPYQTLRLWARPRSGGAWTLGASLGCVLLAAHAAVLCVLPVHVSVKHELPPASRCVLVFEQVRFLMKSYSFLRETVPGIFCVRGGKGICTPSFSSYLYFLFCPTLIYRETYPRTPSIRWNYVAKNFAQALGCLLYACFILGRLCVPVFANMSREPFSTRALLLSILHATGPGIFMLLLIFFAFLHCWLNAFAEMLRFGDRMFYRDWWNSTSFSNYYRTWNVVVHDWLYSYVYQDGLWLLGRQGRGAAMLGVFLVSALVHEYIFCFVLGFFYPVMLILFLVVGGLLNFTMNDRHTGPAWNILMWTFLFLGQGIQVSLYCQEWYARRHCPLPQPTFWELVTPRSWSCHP
Experimental: The ability of representative compounds of the present invention to inhibit ACAT was measured using an in vitro test more fully described in Field F J, Salone R G, Biochemica et Biophysica 1982; 712:557-570. The test assesses the ability of a test compound to inhibit the acylation of cholesterol by oleic acid by measuring the amount of radiolabeled cholesterol oleate formed from radiolabeled oleic acid in a tissue preparation containing rat liver microsomes.

| SMILES | change in vivo at 10 mg/kg (Plasma TC) | IC50 [1] | APCC % Change in Plasma TC (Plasma TC) |
| --- | --- | --- | --- |
| CC(C)c1cc(C(C)C)c(CC(=O)NS(=O)(=O)Oc2c(C(C)C)cc(NC(=O)[C@H](C)N)cc2C(C)C)c(C(C)C)c1 [Example 12, (L)-[(2,4,6-Triisopropyl-phenyl)-acetyl]-sulfamic acid 4-(2-amino-propionylamino)-2,6-diisopropyl-phenyl ester] | -74% | > 50 µM |  |
| CC(C)c1cc(C(C)C)c(CC(=O)NS(=O)(=O)Oc2c(C(C)C)cc(OCCCN(C)C)cc2C(C)C)c(C(C)C)c1 [Example 14, [(2,4,6-Triisopropyl-phenyl)-acetyl]-sulfamic acid 4-(3-dimethylamino-propoxy)-2,6-diisopropyl-phenyl ester] |  | > 50 µM | -11% |
| CC(C)c1cc(C(C)C)c(CC(=O)NS(=O)(=O)Oc2c(C(C)C)cc(NC(=O)[C@@H](C)N)cc2C(C)C)c(C(C)C)c1 [Example 11, (D)-[(2,4,6-Triisopropyl-phenyl)-acetyl]-sulfamic acid 4-(2-amino-propionylamino)-2,6-diisopropyl-phenyl ester trifluoroacetate(1:1) (salt)] | -19% | > 50 µM |  |
| CC(C)c1cc(C(C)C)c(CC(=O)NS(=O)(=O)Oc2c(C(C)C)cc(NC(=O)Nc3ccccc3)cc2C(C)C)c(C(C)C)c1 [Example 30] | -30% | 20.3 µM |  |
| CC(C)c1cc(C(C)C)c(CC(=O)NS(=O)(=O)Oc2c(C(C)C)cc(OCCCN)cc2C(C)C)c(C(C)C)c1 [Example 16, [(2,4,6-Triisopropyl-phenyl)-acetyl]-sulfamic acid 4-(3-amino-propoxy)-2,6-diisopropyl-phenyl ester hydrochloride salt] | -47% | > 50 µM |  |
| CC(C)c1cc(C(C)C)c(CC(=O)NS(=O)(=O)Oc2c(C(C)C)cc(CO)cc2C(C)C)c(C(C)C)c1 [Example 25, [(2,4,6-Triisopropyl-phenyl)-acetyl]-sulfamic acid 4-hydroxymethyl-2,6-diisopropyl-phenyl ester] | -54% | 38.5 µM |  |
| CC(C)c1cc(C(C)C)c(CC(=O)NS(=O)(=O)Oc2c(C(C)C)cc(CN3CCN(C)CC3)cc2C(C)C)c(C(C)C)c1 [Example 23, [(2,4,6-Triisopropyl-phenyl)-acetyl]-sulfamic acid 2,6-diisopropyl-4-(4-methyl-piperazin-1-ylmethyl)-phenyl ester, dihydrochloride] | 5% | 50 µM |  |
| CC(C)c1cc(C(C)C)c(CC(=O)NS(=O)(=O)Oc2c(C(C)C)cc(C(N)=O)cc2C(C)C)c(C(C)C)c1 [Example 24, [(2,4,6-Triisopropyl-phenyl)-acetyl]-sulfamic acid 4-carbamoyl-2,6-diisopropyl-phenyl ester] | -5% | 43.8 µM |  |
| CC(C)c1cc(C(C)C)c(CC(=O)NS(=O)(=O)Oc2c(C(C)C)cc(NC(=O)Nc3c(C(C)C)cccc3C(C)C)cc2C(C)C)c(C(C)C)c1 [Example 29] | -3% | 33 µM |  |
| CC(C)c1cc(C(C)C)c(CC(=O)NS(=O)(=O)Oc2c(C(C)C)cc(NC(=O)C(C)(C)N)cc2C(C)C)c(C(C)C)c1 [Example 13, [(2,4,6-Triisopropyl-phenyl)-acetyl]-sulfamic acid 4-(2-amino-2-methyl-propionylamino)-2,6-diisopropyl-phenyl ester] | -8% | > 50 µM |  |
